# Assay results from patent US20140206624A1, “TREATMENT OF LEUKEMIA” (THE BRIGHAM AND WOMEN'S HOSPITAL, INC., priority 2011, published 2014).
# Assays:
# Assay type in all cases: in vivo, mouse
# MLL-AF9 induced AML [1] = assay: MLL-AF9 BMT assay, leukemic burden (spleen weight, WBC); conditions: FoxO1/3/4 floxed
# Protocol: MLL-AF9-positive FoxO1/3/4^floxed murine bone marrow (BM) cell recovered from a leukemic primary recipient mousecarrying the Mx1-Cre transgene (Mx1-Cre+) or not (Mx1-Cre−) were transplanted into sub-lethally irradiated secondary recipient mice. Fourteen days following transplant 50% of both Mx1-Cre+ and Mx1-Cre− mice were administered pI-pC and the remaining 50% of mice from each condition were given saline. At the first sign of leukemia all mice from each Mx1-Cre condition status were euthanized (Day 29 for Mx1-Cre−(saline and pI-pC treated) and Day 39 for Mx1-Cre+ (saline & pI-pC-treated)).
# (§1) After transduction, infected cells were transplanted into lethally irradiated (2 doses of 450rad gIR separated by 12 hours) F1 FVB/C57/Bl6 mice. Recipient mice developed leukemia within 70-80 days with a median survival of 77 days. Mononuclear BM cells recovered from leukemic mice were then transplanted into secondary sub-lethally irradiated recipients. Fourteen days following transplant, secondary recipients were administered intra-peritoneally three doses of saline or 12.5 mg/kg pI-pC (GE Healthcare Life Sciences) every 2 days. Mice were then monitored for external (i.e. moribund) and internal (white blood cell counts) signs of leukemia.
# To address whether FoxO1/3/4 are essential to maintain MLL-AF9 induced AML in vivo, a MLL-AF9 bone marrow transplant (BMT) assay was used in a mouse bearing homozygous Lox-P flanked (floxed) alleles of FoxO1/3/4 and the interferon-inducible Mx1-Cre transgene (FoxO1/3/4^floxed; Mx1-Cre+; MLL-AF9). MLL-AF9 transformed FoxO1/3/4^floxed BM cells without the Mx1-Cre transgene (FoxO1/3/4^floxed; Mx1-Cre−; MLL-AF9) were used as controls. Leukemia cells from each context (recovered from primary recipients displaying frank leukemia) were harvested and transplanted into sub-lethally irradiated recipients. Fourteen days post-transplant, secondary recipients receiving FoxO1/3/4^floxed; Mx1-Cre+; MLL-AF9 cells or FoxO1/3/4^floxed; Mx1-Cre−; MLL-AF9 controls were either administered polyinosine-polycytidyline (pI-pC) to induce excision of FoxO1/3/4 floxed alleles or saline control (FIG. 9A). At the first presentation of AML, all mice from each group (Mx1-Cre− versus Mx1-Cre+) were euthanized and assessed for leukemic burden as defined by spleen weight and peripheral white blood cell (WBC) counts. […] In contrast, pI-pC-treated FoxO1/3/4^floxed; Mx1-Cre+; MLL-AF9 transplant mice retained normal spleen weights and WBC counts (FIGS. 9B-D and 10A).
# MLL-AF9 induced AML [2] = assay: MLL-AF9 BMT assay, WBC monitoring and survival/latency
# Source text: WBC analysis of peripheral blood collected every 4-14 days post-transplant from Mx1-Cre+ saline and pI-pC-treated mice. Data is independent from Panel C (n=4).
# Kaplan-Meier survival curve analysis of recipient mice Mx1-Cre− transplanted and treated as described above; n=6, p=0.6899.
# Kaplan-Meier survival curve analysis of recipient mice Mx1-Cre+ transplanted and treated as described above. (p=0.0009; n=10).
# as §1
# To distinguish whether disrupting FoxO1/3/4 expression eliminated MLL-AF9 leukemia or merely delayed the onset, FoxO1/3/4^floxed; Mx1-Cre−; MLL-AF9 and FoxO1/3/4^floxed; Mx1-Cre+; MLL-AF9 leukemic cells were separately transplanted into sub-lethally irradiated recipients. Fourteen days post-transplant, mice were administered either pI-pC or saline and subsequently monitored daily for clinical signs of leukemia. Peripheral blood from recipient mice was collected and analyzed for WBC counts every 4-14 days. Mice were euthanized upon displaying external morbidity and/or elevated WBC counts. […] However, despite efficient excision of FoxO1/3/4 (FIGS. 10C-10F) the majority of mice eventually succumbed to leukemia (FIG. 9F).
# [3] = test system: leukemia-initiating cell (LIC); assay: Limited dilution assay of LIC function in tertiary recipients
# Source text: Using the same experimental set-up described in panels G leukemia BM cells Saline (MLL-AF9; FoxO1/3/4^+/+, panel H) versus pI-pC (MLL-AF9; FoxO1/3/4^Δ/Δ, panel I) were by isolated by flow cytometry and subsequently transplanted into tertiary recipients at various cell numbers: 300 (n=6), 3,000 (n=6), 30,000 (n=4) and 300,000 (n=4). Animals were then monitored weekly and euthanized upon presentation of external (moribund) and internal (e.g. WBC) signs of AML. The LIC frequencies of each condition are located in the bottom left corner (H. LICfreq^+/+=1:20,688 and I. LICfreq^Δ/Δ=1: 269,310).
# As described in FIG. 5, MLL-AF9-induced AML was generated in a FoxO1/3/4^floxed; Mx1-Cre+ genetic background that was subsequently transplanted into secondary mice. Fourteen days post-transplant, secondary recipients were administered with saline or pI-pC and monitored for the development of AML (FIG. 5). BM cells recovered from saline (Ctrl) and pI-pC treated mice that succumbed to AML were then transplanted into tertiary recipients and evaluated for the development of AML (p=0.0061; n=8).
# Log-Rank (Mantel-Cox) test was used to determine p values for all Kaplan-Meier survival curve analyses. Unpaired, two-tailed student's t tests were used for all analyses comparing two experimental groups. Poisson statistics was used to determine the leukemia-initiating cell frequency in vivo in FIGS. 9H and 9I as well as in vitro in FIGS. 4E and 4F.
# To test whether loss of FoxO1/3/4 also diminished LIC function, a limited dilution assay was performed for leukemia cells immediately following FoxO1/3/4 deletion. Briefly, equal numbers of leukemic BM cells were recovered from FoxO1/3/4^floxed; Mx1-Cre+; MLL-AF9 mice seven days following pI-pC or saline treatment. Recipient mice were then injected with 300, 3,000, 30,000 or 300,000 cells of each condition. Ninety days following transplantation, 100%, 75% and 17% of mice that received 300,000, 30,000 or 3,000 cells, respectively, from saline-treated FoxO1/3/4^floxed; Mx1-Cre+; MLL-AF9 succumbed to AML corresponding to a LIC frequency of 1:20,688 (FIG. 9H). In contrast, 75% of mice transplanted with 300,000 pI-pC-treated FoxO1/3/4^floxed; Mx1-Cre+; MLL-AF9 donor cells developed AML whereas 100% of mice from each other cell dose were alive at day 90.
# [4] = Mx1-Cre+, MLL-AF9 mice, pI-pC induces excision of FoxO1/3/4
substance,measurement,setting,value
polyinosine-polycytidyline [pI-pC],WBC counts,MLL-AF9 induced AML [1]; [4],normal
same,spleen weights,MLL-AF9 induced AML [1]; [4],normal
same,lymphoid-myeloid ratio in peripheral blood,"MLL-AF9 induced AML [1]; Mx1-Cre+, MLL-AF9 mice, data not shown",normal lymphoid-myeloid ratio
same,splenomegaly and leukocytosis,"MLL-AF9 induced AML [1]; Mx1-Cre−, MLL-AF9 recipients (no excision)",developed splenomegaly and leukocytosis
same,latency for the onset of AML,"MLL-AF9 induced AML [2]; Mx1-Cre+ leukemic cells, excision of FoxO1/3/4",significantly longer latency
same,WBC counts,"MLL-AF9 induced AML [2]; Mx1-Cre+ mice, blood every 4-14 days",lower WBC counts than saline-treated controls
same,mice disease-free up to 5 months post-excision,"MLL-AF9 induced AML [2]; Mx1-Cre+, n=10",20%
same,increase in median survival,"[3]; 300,000 donor cells, pI-pC vs saline-treated",~2 fold
same,median survival,"[3]; 300,000 pI-pC-treated donor cells, n=4",82 days
same,mice that developed AML,"[3]; 300,000 pI-pC-treated donor cells, ninety days following transplantation",75%
same,mice alive at day 90,"[3]; each other cell dose (300, 3,000, 30,000) of pI-pC-treated donor cells",100%
same,LIC frequency lower than the control group,[3]; pI-pC vs saline,13 fold
same,latency in recipients of donor cells from mice of FIG. 9F,[3]; pI-pC vs saline-treated donors (FIG. 10B),extended latency
